In patent US20250051391A1, “PEPTIDE INHIBITORS AND METHODS FOR INHIBITING PROTEIN AGGREGATION IN NEURONS AND NEURODEGENERATIVE DISEASES” (THE GOVERNING COUNCIL OF THE UNIVERSITY OF TORONTO, priority 2021, published 2025):

The substances below were run on HEK293 cells overexpressing human a-syn (WT) (assay: Cytotoxicity screen of lentiviral 7-mer peptide library, Alpha Syn (WT) cells under MG132). Details: not given.
Format: cell-based
Text: (§1) A screening system to discover candidate peptides to perturb endogenous PPIs based on libraries of short linear interaction motifs that mediate a large fraction (˜30%) of human PPIs (10-12) was recently developed. Here, a lentiviral library of 50,549 7-mer peptide motifs (13) on a green fluorescent protein (GFP) scaffold (FIG. 1A) was used. Cells in a pooled format were infected and the amino acid sequence of each peptide served as its own barcode. By using a low multiplicity of infection followed by puromycin selection, each infected cell expressed one unique GFP-peptide. Peptides that reduced a-syn-mediated cytotoxicity or a-syn oligomers in parallel (FIG. 1A), were screened for.
(§2) To cause cytotoxicity relevant to PD, proteostatic stress in HEK293 cells was induced by inhibiting the proteasome with MG132 and inducing the overexpression of human a-syn (WT) from idiopathic PD in one screen and the more toxic A53T mutant from familial PD in a second screen. The combination of a-syn overexpression and pharmacological proteasome inhibition led to death of most cells, with only those that expressed a protective peptide surviving. By extracting genomic DNA from the surviving cells and amplifying the peptide coding sequences, the protective peptides (FIG. 1A) were identified.
(§3) PCR primers that included the Illumina adaptor sequences were used to amplify peptide coding sequences recovered from selection and cell sorting. Results were demultiplexed, and peptide counts were tallied. After demultiplexing, only reads with an average quality Phred score of >30 were selected, and frequencies were calculated. Finally, the reads were then normalized to the total number of peptides read for that sample population, and a scalar factor was applied. In parallel, ˜25 individual colonies were Sanger sequenced to compare to the NGS data.
(§4) Lentiviruses were made in a 15 cm dish format by transfecting packaging cells (293T) with a three-plasmid system as previously described. Viral transduction of HEK293T cells, tet-off split luciferase a-syn cells, tet-off parent cells, and SH-SY5Y cells were performed with a multiplicity of infection of 0.3 (MOI=0.3). Infected cells were selected in puromycin-containing medium to eliminate uninfected cells and three aliquots of cells were collected for sampling of the initial (TO) cell population. Cells were treated with MG132 at concentrations of 0 μM, 10 μM, 25 μM or 50 μM. For the cell viability screen, surviving cells were collected and gDNA was extracted for identification of peptide inhibitors of cell toxicity. For the inhibition of a-syn aggregation screen, split YFP-a-syn constructs were transfected following stable expression of the peptides. Cells were sorted based on their GFP fluorescence intensities with a FACSVantage SE cell sorter (BD Bioscience).
(§5) Genomic DNA (gDNA) from peptide expressing cells at different time-points was extracted using QIAamp DNA Blood Mini Kit. PCR amplifications of peptides from gDNA in parallel with the lentiviral plasmid library (naïve library) were performed using indexed Illumina PCR primers to incorporate both the Illumina adapter sequences and indexing sequences. Each 50 μl reaction contained 3.2 μg of template, 2×PCR buffer, 2× enhancer solution, 300 μM each dNTP, 900 nM each of Adapter A (5′-[…]-[…]-3′) (SEQ ID NO: 42) and Adapter B (5′-[…]-[…]-3′) (SEQ ID NO: 43), 1 mM MgSO4, 3.75 units of Platinum Pfx polymerase, and water to 50 μl. The PCR reaction was performed by denaturing at 94° C. for 5 minutes, followed by cycling (94° C. for 30 seconds, 65° C. for 30 seconds, 68° C. for 30 seconds)×28 cycles, 68° C. for 5 minutes, then cooling to 4° C. The resulting 244 bp product was purified by electrophoresis in 2% agarose followed by gel extraction. Peptide libraries were quantified using Quant-It assay (Invitrogen) and pooled. […]

In order of falling “Slope Norm Reads” value:
1. RAPSCHL [7-mer library hit, Alpha Syn screen]  0.15
2. DWLMVNL [7-mer library hit, Alpha Syn screen]  0.13
3. LQVGVAV [7-mer library hit, Alpha Syn screen]  0.09
4. LPASMPC [7-mer library hit, Alpha Syn screen]  0.09
5. PLPTGMG [7-mer library hit, Alpha Syn screen]  0.08
6. CMVHSAG [7-mer library hit, Alpha Syn screen]  0.08
7. LSGECVP [7-mer library hit, Alpha Syn screen]  0.07
8. AAYNLCA [7-mer library hit, Alpha Syn screen]  0.07
9. GAAAGGT [7-mer library hit, Alpha Syn screen]  0.06

Same assay, conditions: normalized Illumina peptide counts, 0 uM MG132

In order of rising “Reads 0 uM MG132” value:
1. DWLMVNL [7-mer library hit, Alpha Syn screen]  1
2. LQVGVAV [7-mer library hit, Alpha Syn screen]  1
3. PLPTGMG [7-mer library hit, Alpha Syn screen]  1
4. GAAAGGT [7-mer library hit, Alpha Syn screen]  1
5. RAPSCHL [7-mer library hit, Alpha Syn screen]  1
6. AAYNLCA [7-mer library hit, Alpha Syn screen]  1
7. LPASMPC [7-mer library hit, Alpha Syn screen]  2
8. LSGECVP [7-mer library hit, Alpha Syn screen]  3
9. CMVHSAG [7-mer library hit, Alpha Syn screen]  4

Same assay, conditions: normalized Illumina peptide counts, 10 µM MG132

In order of rising “Reads 10 UM MG132” value:
1. PLPTGMG [7-mer library hit, Alpha Syn screen]  3
2. GAAAGGT [7-mer library hit, Alpha Syn screen]  10
3. DWLMVNL [7-mer library hit, Alpha Syn screen]  13
4. RAPSCHL [7-mer library hit, Alpha Syn screen]  13
5. AAYNLCA [7-mer library hit, Alpha Syn screen]  14
6. CMVHSAG [7-mer library hit, Alpha Syn screen]  14
7. LPASMPC [7-mer library hit, Alpha Syn screen]  16
8. LQVGVAV [7-mer library hit, Alpha Syn screen]  25
9. LSGECVP [7-mer library hit, Alpha Syn screen]  28

Same assay, conditions: normalized Illumina peptide counts, 25 µM MG132

In order of rising “Reads 25 UM MG132” value:
1. GAAAGGT [7-mer library hit, Alpha Syn screen]  17
2. AAYNLCA [7-mer library hit, Alpha Syn screen]  19
3. PLPTGMG [7-mer library hit, Alpha Syn screen]  20
4. LQVGVAV [7-mer library hit, Alpha Syn screen]  23
5. LPASMPC [7-mer library hit, Alpha Syn screen]  27
6. LSGECVP [7-mer library hit, Alpha Syn screen]  28
7. DWLMVNL [7-mer library hit, Alpha Syn screen]  29
8. RAPSCHL [7-mer library hit, Alpha Syn screen]  33
9. CMVHSAG [7-mer library hit, Alpha Syn screen]  33

The substances below were run on HEK293 cells overexpressing A53T a-syn (assay: Cytotoxicity screen of lentiviral 7-mer peptide library, Alpha syn A53T cells under MG132). Details: not given.
Format: cell-based, human
Text: as §1, §2, §3, §4, §5

In order of falling “Slope Norm Reads” value:
1. CKYRSVL [7-mer library hit, A53T screen]  1.30
2. GWTTVRR [7-mer library hit, A53T screen]  0.94
3. QSVLQQV [7-mer library hit, A53T screen]  0.82
4. QVSVAQQ [7-mer library hit, A53T screen]  0.69

Same assay, conditions: normalized Illumina peptide counts, 0 uM MG132

In order of falling “Reads 0 uM MG132” value:
1. QVSVAQQ [7-mer library hit, A53T screen]  45
2. GWTTVRR [7-mer library hit, A53T screen]  15
3. QSVLQQV [7-mer library hit, A53T screen]  13
4. CKYRSVL [7-mer library hit, A53T screen]  5

Same assay, conditions: normalized Illumina peptide counts, 10 µM MG132

In order of rising “Reads 10 UM MG132” value:
1. GWTTVRR [7-mer library hit, A53T screen]  1
2. QSVLQQV [7-mer library hit, A53T screen]  2
3. CKYRSVL [7-mer library hit, A53T screen]  7
4. QVSVAQQ [7-mer library hit, A53T screen]  13

Same assay, conditions: normalized Illumina peptide counts, 25 µM MG132

In order of falling “Reads 25 UM MG132” value:
1. QVSVAQQ [7-mer library hit, A53T screen]  120
2. GWTTVRR [7-mer library hit, A53T screen]  29
3. QSVLQQV [7-mer library hit, A53T screen]  12
4. CKYRSVL [7-mer library hit, A53T screen]  11

Same assay, conditions: normalized Illumina peptide counts, 50 µM MG132

In order of falling “Reads 50 UM MG132” value:
1. CKYRSVL [7-mer library hit, A53T screen]  438
2. GWTTVRR [7-mer library hit, A53T screen]  322
3. QSVLQQV [7-mer library hit, A53T screen]  282
4. QVSVAQQ [7-mer library hit, A53T screen]  246
